Experimental data published in PMC4537572, “Cellobionic acid utilization: from Neurospora crassa to Saccharomyces cerevisiae” (Biotechnology for Biofuels, 2015).

Legend:
CAP (NCU09425) = CAP (NCU09425) (Neurospora crassa, UniProt Q7S0S2); details: 2 mM cellobionate, 0.5 μM enzyme, 1x PBS, 30 °C, 30 min
CBT-1 (NCU05853) = target: T1, CBT-1 (NCU05853) (Neurospora crassa, UniProt Q7S555); test: yeast cell-based uptake assay, HPAEC of remaining sugar; details: pH 6.0, 30 °C, 30 min; 5 mM MES, 100 mM NaCl; S. cerevisiae cells expressing the transporter
T1 construct: expressed in S. cerevisiae from plasmid pRS426_NCU05853
T1 sequence (Q7S555 entry or part of it): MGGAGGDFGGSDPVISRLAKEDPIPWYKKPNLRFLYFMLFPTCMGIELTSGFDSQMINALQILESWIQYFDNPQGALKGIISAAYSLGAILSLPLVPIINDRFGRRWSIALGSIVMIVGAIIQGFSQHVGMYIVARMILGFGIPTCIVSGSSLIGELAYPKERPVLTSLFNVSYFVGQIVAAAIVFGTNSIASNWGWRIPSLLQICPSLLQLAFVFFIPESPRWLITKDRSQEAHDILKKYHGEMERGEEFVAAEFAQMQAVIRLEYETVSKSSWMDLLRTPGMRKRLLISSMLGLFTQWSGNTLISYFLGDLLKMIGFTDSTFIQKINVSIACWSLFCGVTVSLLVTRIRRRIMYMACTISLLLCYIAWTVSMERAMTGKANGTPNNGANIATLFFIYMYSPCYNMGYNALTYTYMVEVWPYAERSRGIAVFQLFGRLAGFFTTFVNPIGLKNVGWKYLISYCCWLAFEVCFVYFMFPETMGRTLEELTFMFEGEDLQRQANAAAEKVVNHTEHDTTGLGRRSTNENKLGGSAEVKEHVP
Description: yeast cell-based uptake assay, HPAEC of remaining sugar on CBT-1 (NCU05853) | only NCU05853 […] was capable of transporting cellobionic acid into the cell

[1] = target: T2, S. cerevisiae gluconokinase (YDR248C) (Saccharomyces cerevisiae, UniProt Q03786); test: gluconokinase assay, HPAEC of products; assay type: biochemical; details: 1 mM gluconate, 5 mM ATP, 0.2 μM enzyme, 1x PBS, 30 °C, 30 min
T2 construct: full ORF with C-terminal His6-tag, expressed in and purified from S. cerevisiae
T2 sequence (Q03786 1-193): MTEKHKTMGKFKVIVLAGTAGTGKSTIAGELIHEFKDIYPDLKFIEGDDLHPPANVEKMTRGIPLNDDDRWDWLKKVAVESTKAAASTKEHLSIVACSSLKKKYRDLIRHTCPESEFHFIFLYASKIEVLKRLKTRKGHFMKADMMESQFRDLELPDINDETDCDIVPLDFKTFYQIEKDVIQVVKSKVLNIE

Sequence of CAP (NCU09425) (Q7S0S2 whole entry): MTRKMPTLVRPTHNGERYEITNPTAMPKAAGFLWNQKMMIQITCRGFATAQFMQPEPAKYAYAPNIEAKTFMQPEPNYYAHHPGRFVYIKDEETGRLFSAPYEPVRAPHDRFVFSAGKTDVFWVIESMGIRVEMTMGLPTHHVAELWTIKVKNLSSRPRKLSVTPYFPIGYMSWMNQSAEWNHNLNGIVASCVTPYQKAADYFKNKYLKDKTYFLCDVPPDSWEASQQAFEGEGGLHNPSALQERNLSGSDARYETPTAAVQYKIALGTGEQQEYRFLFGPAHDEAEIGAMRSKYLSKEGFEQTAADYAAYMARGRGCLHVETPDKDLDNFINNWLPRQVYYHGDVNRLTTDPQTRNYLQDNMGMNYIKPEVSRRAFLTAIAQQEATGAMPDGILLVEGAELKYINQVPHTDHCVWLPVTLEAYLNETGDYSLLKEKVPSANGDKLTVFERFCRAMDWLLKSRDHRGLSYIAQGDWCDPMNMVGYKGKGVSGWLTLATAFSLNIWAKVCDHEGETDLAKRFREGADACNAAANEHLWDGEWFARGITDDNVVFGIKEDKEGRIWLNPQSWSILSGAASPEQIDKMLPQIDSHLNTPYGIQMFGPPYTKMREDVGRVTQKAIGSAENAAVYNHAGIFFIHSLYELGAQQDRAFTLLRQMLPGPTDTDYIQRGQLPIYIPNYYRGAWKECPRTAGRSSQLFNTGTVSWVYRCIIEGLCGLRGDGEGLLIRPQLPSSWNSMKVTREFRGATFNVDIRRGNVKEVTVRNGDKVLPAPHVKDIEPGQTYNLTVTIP

Compound	phosphorolysis, HPAEC of products (CAP (NCU09425))	yeast cell-based uptake assay, HPAEC of remaining sugar (CBT-1 (NCU05853))	gluconokinase assay, HPAEC of products [1]
O=C(O)[C@H](O)[C@@H](O)[C@H](O[C@@H]1O[C@H](CO)[C@@H](O)[C@H](O)[C@H]1O)[C@H](O)CO [A2, cellobionic acid]	specifically cleaved cellobionic acid to gluconic acid and glucose 1-phosphate	only NCU05853 [...] was capable of transporting cellobionic acid into the cell	–
O=C(O)[C@H](O)[C@@H](O)[C@H](O)[C@H](O)CO [A1, gluconic acid]	–	–	YDR248C has gluconokinase activity in vitro
